{"source": "patent US20120070392A1", "about": "“COMPOSITION FOR INHIBITING ERYTHEMA CAUSED BY ULTRAVIOLET RADIATION CONTAINING A DIPEPTIDE AS ACTIVE INGREDIENT” (priority 2009, published 2012)", "data": [{"tested_on": "PGE2 production", "assay": "Inhibition of UVB-induced PGE2 production in cultured human keratinocytes (PGE2 assay kit, calibrated with MTT absorbance)", "format": "cell-based", "settings": "not given", "method": "(§1) Human keratinocytes were seeded at a density of 1×10^5 cells/well to 6-well plates containing 2 mL of KGM(keratinocyte growth medium, Clonetics, San Diego, Calif., USA) per well and cultured overnight. Then, the medium was replaced with KBM(keratinocyte basal medium) supplemented with 0.1% BSA(bovine serum albumin) and the cells were cultured for an additional 24 hours. Subsequently, the cells were pre-treated for an additional 24 hours with 2 mL of the same medium containing 10 μg/ml of each of the dipeptides listed in Table 1. […] The pre-treated medium was transferred to new 24 well plates and 1 mL of DPBS(Dulbecco's phosphate buffered saline) was added to the cells in each well. During UV irradiation, the transferred medium was stored in a cell incubator. […] At this time, the control was covered with aluminum foil. After the removal of DPBS, the transferred medium was returned to each well. The cells were further cultured for 24 hours, after which 1 mL of the medium was transferred to microcentrifuge tubes. […] The supernatants were then removed and the formazan crystals were solubilized in 1 ml of DMSO(dimethylsulfoxide). One hundred μL of the solution was transferred to each well of 96-well plates and an optical density was determined at 540 nm using an ELISA(enzyme-linked immunosorbent assay) reader. […] The concentration of PGE2 was determined using a PGE2 Assay Kit(KGE004, R&D Systems, Inc., Minneapolis, Minn., USA) according to the manufacturer's instruction. […] After removal of the reaction, the wells were washed five times with 400 μL of wash buffer. To each well was added 200 μL of a substrate solution, followed by incubation for 20 30 min. The reaction was terminated with 50 μL of a stop solution per well before determining absorbance at 450 nm on an ELISA reader. The PGE2 concentration of each sample was calculated from the standard graph and calibrated with the absorbance obtained in the MTT assay to determine their inhibitory activity against PGE2 production.", "units": {"% Inhibition against PGE2 Production": "%"}, "values": [{"compound": "proline-arginine", "% Inhibition against PGE2 Production": 76.4}, {"compound": "isoleucine-tyrosine [IY]", "% Inhibition against PGE2 Production": 68.6}, {"compound": "lysine-methionine [KM]", "% Inhibition against PGE2 Production": 84.0}, {"compound": "methionine-arginine [MR]", "% Inhibition against PGE2 Production": 36.5}, {"compound": "glutamine-tyrosine [QY]", "% Inhibition against PGE2 Production": 54.6}, {"compound": "methionine-glutamine [MQ]", "% Inhibition against PGE2 Production": 87.5}, {"compound": "arginine-methionine [RM]", "% Inhibition against PGE2 Production": 84.7}, {"compound": "proline-aspartic acid [PD]", "% Inhibition against PGE2 Production": 84.3}, {"compound": "glutamic acid-tyrosine [EY]", "% Inhibition against PGE2 Production": 75.9}, {"compound": "serine-tyrosine [SY]", "% Inhibition against PGE2 Production": 91.5}, {"compound": "alanine-tyrosine [AY]", "% Inhibition against PGE2 Production": 31.8}, {"compound": "glycine-glycine [GG]", "% Inhibition against PGE2 Production": 26.1}, {"compound": "tyrosine-aspartic acid [YD]", "% Inhibition against PGE2 Production": 88.0}, {"compound": "cysteine-asparagine [CN]", "% Inhibition against PGE2 Production": 92.0}, {"compound": "N=C(N)NCCC[C@H](N)C(=O)O.NCC(=O)O", "note": "[RG, arginine-glycine]", "% Inhibition against PGE2 Production": 82.8}]}, {"tested_on": "PGE2 production", "assay": "Inhibition of UVB-induced PGE2 production in cultured human keratinocytes (PGE2 assay kit, calibrated with MTT absorbance)", "format": "cell-based", "settings": "10 μg/ml dipeptide, 24 h pre-treatment, human keratinocytes, UVB 100 mJ/cm^2, medium assayed 24 h after irradiation; 0% or lower expressed as zero; 10% or more regarded as effective", "method": "as §1", "units": {"% Inhibition against PGE2 Production": "%"}, "values": [{"compound": "tyrosine-alanine [YA]", "% Inhibition against PGE2 Production": 80.2}, {"compound": "glycine-alanine [GA]", "% Inhibition against PGE2 Production": 17.6}, {"compound": "phenylalanine-alanine [FA]", "% Inhibition against PGE2 Production": 48.8}, {"compound": "alanine-alanine [AA]", "% Inhibition against PGE2 Production": 78.4}, {"compound": "leucine-alanine", "% Inhibition against PGE2 Production": 47.2}, {"compound": "isoleucine-alanine [IA]", "% Inhibition against PGE2 Production": 38.6}, {"compound": "tryptophan-alanine [WA]", "% Inhibition against PGE2 Production": 88.5}]}, {"tested_on": "PGE2 production", "assay": "Inhibition of UVB-induced PGE2 production in cultured human keratinocytes (PGE2 assay kit, calibrated with MTT absorbance)", "format": "cell-based", "settings": "10 μg/ml dipeptide, 24 h pre-treatment, human keratinocytes, UVB 100 mJ/cm^2, medium assayed 24 h after irradiation; […]; 10% or more regarded as effective", "method": "as §1", "units": {"% Inhibition against PGE2 Production": "%"}, "values": [{"compound": "asparagine-arginine [NR]", "% Inhibition against PGE2 Production": 72.8}, {"compound": "cysteine-glutamic acid [CE]", "% Inhibition against PGE2 Production": 54.4}, {"compound": "aspartic acid-threonine [DT]", "% Inhibition against PGE2 Production": 95.8}, {"compound": "threonine-glutamic acid [TE]", "% Inhibition against PGE2 Production": 82.5}, {"compound": "leucine-asparagine [LN]", "% Inhibition against PGE2 Production": 78.8}, {"compound": "alanine-aspartic acid [AD]", "% Inhibition against PGE2 Production": 58.3}, {"compound": "phenylalanine-leucine [FL]", "% Inhibition against PGE2 Production": 29.2}, {"compound": "glutamic acid-alanine [EA]", "% Inhibition against PGE2 Production": 55.3}, {"compound": "serine-aspartic acid [SD]", "% Inhibition against PGE2 Production": 58.4}, {"compound": "tryptophan-lysine [WK]", "% Inhibition against PGE2 Production": 78.3}, {"compound": "threonine-tryptophan [TW]", "% Inhibition against PGE2 Production": 54.8}, {"compound": "aspartic acid-isoleucine [DI]", "% Inhibition against PGE2 Production": 25.9}, {"compound": "arginine-threonine [RT]", "% Inhibition against PGE2 Production": 27.5}, {"compound": "lysine-tryptophan [KW]", "% Inhibition against PGE2 Production": 76.9}, {"compound": "aspartic acid-glutamine [DQ]", "% Inhibition against PGE2 Production": 52.4}, {"compound": "leucine-cysteine [LC]", "% Inhibition against PGE2 Production": 33.3}, {"compound": "isoleucine-serine", "% Inhibition against PGE2 Production": 66.0}, {"compound": "glutamic acid-valine [EV]", "% Inhibition against PGE2 Production": 86.4}, {"compound": "asparagine-glutamic acid", "% Inhibition against PGE2 Production": 14.5}]}]}
